“And” between values parts separate entries of the source, which are not always exact repeats. Equal entries are not always repeated. Where two headings read alike, the source gives them in different places. Starred links: 1 amine or outer side, 2 acyl side, 3 side chain; linkers in the order of their positions; H or OH if unused. Positions of bridges follow the written chain, without caps; N, C: chain ends. Non-standard residues stand in square brackets, D forms with d. Residues, ends and D or L forms follow the SMILES beside them. *: point of attachment. X1 = NC1=N[C@@H]([C@H](N[*:1])C(=O)[*:2])C[C@H](O)N1; ΔAla(Z-3-ureido) = NC(=O)N/C=C(\N)C(=O)O; β3hOrn = NCCC[C@H](N)CC(=O)*; Dap = NC[C@H](N)C(=O)O
Experiments:
Cph001 [1] = experiment: Coupled enzyme assay and Michaelis-Menten kinetics of Cph001; format: biochemical, Streptosporangium roseum; design: initial velocity, Figure 3c iii, Triplicate: unit not given here; details: for initial velocity, Figure 3c iii, Triplicate / initial velocity, Figure 3c iv, Triplicate: 20 mM CMN IIA; for kcat, phosphate donor varied / Km: in the presence of saturating CMN IIA (20 mM), mean ± SEM, n = 3; for Km: read-out: apparent Km of the phosphate donor; for phosphorylation by Cph001 in couple enzyme assay: 2 mM antibiotic substrate, ATP as phosphate donor, absorbance at 340 nm; for absorbance at 340 nm, Average of triplicate: 2 mM substrate + ATP
Protocol: The phosphorylation reaction was measured by a coupled enzyme assay as following. […] The reactions were mixed well in a final volume of 200 μL in 96-well plates. The Cph001 activity was assayed by determining the oxidation of NADH at 340 nm. The reaction buffer and enzyme concentration of the Cph reaction was followed by previous study. The 340 nm absorbance changes were detected at 30 °C for every 1 min at a time in 15 min on an EPOCH Microplate Reader (BioTek). All reactions were carried out in triplicate.
The initial velocity data were plotted against substrate concentrations and fit the Michaelis-Menten equation. The Km and Vmax values were calculated based on the Michaelis-Menten equation. GraphPad Prism was used for statistical data analysis. All reactions were carried out in triplicate.

[2] = tested on: E. coli/pET-22b (Control); experiment: Disk diffusion assay; format: cell-based, E. coli BL21 Rosetta (DE3); details: Escherichia coli, 37 °C, 24 hr, read-out: inhibition zones; for zone of inhibition at 12.5 µg/disc: 12.5 μg on disk; for zone of inhibition at 50 µg/disc: 50 μg on disk; for zone of inhibition at 100 µg/disc: 100 μg on disk; for zone of inhibition at 200 µg/disc: 200 μg on disk
Protocol: The E. coli BL21 Rosetta (DE3) strains containing pET22b, and its carrying cph, cph001, cph002, cph003, aph(3′)-Ia, and mphB plasmids were cultured overnight. The cells, respectively, were then diluted to 0.1 OD600 in molten LB agar with 100 μg/mL ampicillin and 500 μM IPTG for the disk diffusion assay. The cells with ampicillin and IPTG were mixed well with molten LB agar and then poured into 10 cm diameter Petri dishes. […] The Petri dishes were placed in the incubator at 37 °C and the inhibition zones were observed after 24 hr.

Cph = target: Cph; design: method as in ACS Chem. Biol. 17, 138, 2022; details: ITC; ref ACS Chem. Biol. 17, 138, 2022; read-out: KD values for Cph interaction; cited from earlier work
E. coli/cph = experiment: Disk diffusion assay; format: cell-based, E. coli BL21 Rosetta (DE3); details: Escherichia coli, 24 h, read-out: inhibition zones
Protocol: (§1) The E. coli BL21 Rosetta (DE3) strains containing pET22b, and its carrying cph, cph001, cph002, cph003, aph(3′)-Ia, and mphB plasmids were cultured overnight. The cells, respectively, were then diluted to 0.1 OD600 in molten LB agar with 100 μg/mL ampicillin and 500 μM IPTG for the disk diffusion assay. The cells with ampicillin and IPTG were mixed well with molten LB agar and then poured into 10 cm diameter Petri dishes. The 7 mm disks were placed onto the LB agar and gently loaded with varying quantities of CMN IIA, CMN IIB, VIO, Kan, and Ery, ranging from 0 to 200 μg. The Petri dishes were placed in the incubator at 37 °C and the inhibition zones were observed after 24 hr.

E. coli/cph001 = experiment: Disk diffusion assay; format: cell-based, E. coli BL21 Rosetta (DE3); details: for resistance in disk diffusion assay: E. coli harboring cph001; for zone of inhibition at 12.5 µg/disc / zone of inhibition at 50 µg/disc / zone of inhibition at 100 µg/disc / zone of inhibition at 200 µg/disc: Escherichia coli, 24 h, read-out: inhibition zones
Protocol: as §1

Cph001 [3] = target: T1, Cph001 (Streptosporangium roseum, UniProt D2B3F1); experiment: Isothermal titration calorimetry (ITC) analysis of Cph001; format: binding
T1 sequence (D2B3F1 1-286): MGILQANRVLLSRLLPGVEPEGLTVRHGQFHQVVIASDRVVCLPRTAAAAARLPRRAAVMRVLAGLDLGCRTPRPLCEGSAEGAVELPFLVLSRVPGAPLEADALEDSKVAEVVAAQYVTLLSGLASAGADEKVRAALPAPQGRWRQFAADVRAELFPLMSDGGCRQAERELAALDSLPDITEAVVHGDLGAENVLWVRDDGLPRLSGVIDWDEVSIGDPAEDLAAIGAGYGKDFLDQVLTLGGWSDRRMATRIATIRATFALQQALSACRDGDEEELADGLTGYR
Source text: The integrated heat areas constitute a differential binding curve that was fitted with a standard single-site binding model by Origin 7.

E. coli/mphB = experiment: Disk diffusion assay; format: cell-based, E. coli BL21 Rosetta (DE3); details: Escherichia coli, 24 h, read-out: inhibition zones
Protocol: as §1

[4] = design: method as in earlier work; details: ref Antimicrob. Agents Chemother. 60, 4786, 2016 and Antimicrob. Agents Chemother. 62, e01724, 2018, cited from earlier work

Nc1ncnc2c1ncn2C1OC(COP(=O)(O)OP(=O)(O)OP(=O)(O)O)C(O)C1O (centres unmarked) [ATP]
initial velocity, Figure 3c iii, Triplicate (Cph001 [1]; 0.01 mM ATP): 0.0001332 and 0.000121 and 0.0001197 | initial velocity, Figure 3c iii, Triplicate (Cph001 [1]; 0.02 mM ATP): 0.0001161 and 0.0001344 and 0.0001332 | initial velocity, Figure 3c iii, Triplicate (Cph001 [1]; 0.05 mM ATP): 0.0002407 and 0.0001564 and 0.0001833 | initial velocity, Figure 3c iii, Triplicate (Cph001 [1]; 0.1 mM ATP): 0.0002407 and 0.0002053 and 0.0001552 | initial velocity, Figure 3c iii, Triplicate (Cph001 [1]; 0.2 mM ATP): 0.0003336 and 0.0003519 and 0.0003385 | initial velocity, Figure 3c iii, Triplicate (Cph001 [1]; 0.4 mM ATP): 0.0003201 and 0.0003715 and 0.0003678 | initial velocity, Figure 3c iii, Triplicate (Cph001 [1]; 0.6 mM ATP): 0.0004387 and 0.0003983 | initial velocity, Figure 3c iii, Triplicate (Cph001 [1]; 0.8 mM ATP): 0.0003825 and 0.0004668 and 0.0004985 | kcat, phosphate donor varied (Cph001 [1]): 0.00967 ± 0.0005 s⁻¹ | Km (Cph001 [1]): 70 ± 20 µM

C[C@@H]1NC(=O)[C@@H](N)CNC(=O)[C@H](C2CCNC(=N)N2)NC(=O)/C(=C/NC(N)=O)NC(=O)[C@H](CNC(=O)C[C@@H](N)CCCN)NC1=O (some centres unmarked) [CMN IIB]
zone of inhibition at 12.5 µg/disc [2]: 17 mm | zone of inhibition at 50 µg/disc [2]: 23 mm | zone of inhibition at 100 µg/disc [2]: 25 mm | zone of inhibition at 200 µg/disc [2]: 27 mm | phosphorylation by Cph001 in couple enzyme assay (Cph001 [1]): incapable of phosphorylating | Kd (Cph): 5.48 µM | zone of inhibition at 50 µg/disc (E. coli/cph): 12 mm | zone of inhibition at 100 µg/disc (E. coli/cph): 14 mm | zone of inhibition at 200 µg/disc (E. coli/cph): 16 mm | resistance in disk diffusion assay (E. coli/cph001): capable of endowing E. coli with resistance | zone of inhibition at 12.5 µg/disc (E. coli/cph001): 11 mm | zone of inhibition at 50 µg/disc (E. coli/cph001): 14 mm | zone of inhibition at 100 µg/disc (E. coli/cph001): 16 mm | zone of inhibition at 200 µg/disc (E. coli/cph001): 17.5 mm | Kd (Cph001 [3]): 55.2 ± 4.4 µM

CC[C@H]1OC(=O)[C@H](C)[C@@H](O[C@H]2C[C@@](C)(OC)[C@@H](O)[C@H](C)O2)[C@H](C)[C@@H](O[C@@H]2O[C@H](C)C[C@H](N(C)C)[C@H]2O)[C@](C)(O)C[C@@H](C)C(=O)[C@H](C)[C@@H](O)[C@]1(C)O [Ery, erythromycin]
zone of inhibition at 12.5 µg/disc [2]: 24 mm | zone of inhibition at 50 µg/disc [2]: 27 mm | zone of inhibition at 100 µg/disc [2]: 29 mm | zone of inhibition at 200 µg/disc [2]: 31 mm | phosphorylation by Cph001 in couple enzyme assay (Cph001 [1]): only capable of phosphorylating VIO | zone of inhibition at 12.5 µg/disc (E. coli/cph001): 23 mm | zone of inhibition at 200 µg/disc (E. coli/cph001): 32 mm | zone of inhibition at 12.5 µg/disc (E. coli/mphB): 15.5 mm | zone of inhibition at 50 µg/disc (E. coli/mphB): 21.5 mm | zone of inhibition at 100 µg/disc (E. coli/mphB): 23 mm | zone of inhibition at 200 µg/disc (E. coli/mphB): 24 mm

Nc1nc2c(ncn2[C@@H]2O[C@H](COP(=O)(O)OP(=O)(O)OP(=O)(O)O)[C@@H](O)[C@H]2O)c(=O)[nH]1 [GTP]
initial velocity, Figure 3c iv, Triplicate (Cph001 [1]; 0.02 mM GTP): 9.164e-5 and 7.331e-5 and 0.0001283 | initial velocity, Figure 3c iv, Triplicate (Cph001 [1]; 0.05 mM GTP): 9.164e-5 and 0.0001521 and 0.0001466 | initial velocity, Figure 3c iv, Triplicate (Cph001 [1]; 0.1 mM GTP): 0.0002053 and 0.0001576 and 0.0002218 | initial velocity, Figure 3c iv, Triplicate (Cph001 [1]; 0.2 mM GTP): 0.0003519 and 0.0003501 and 0.0003886 | initial velocity, Figure 3c iv, Triplicate (Cph001 [1]; 0.4 mM GTP): 0.0005242 and 0.0006232 and 0.0004326 | initial velocity, Figure 3c iv, Triplicate (Cph001 [1]; 0.6 mM GTP): 0.0006012 and 0.0005554 and 0.000493 | initial velocity, Figure 3c iv, Triplicate (Cph001 [1]; 1 mM GTP): 0.0006525 and 0.0006232 and 0.000592 | initial velocity, Figure 3c iv, Triplicate (Cph001 [1]; 2 mM GTP): 0.0006287 and 0.0006397 and 0.0005095 | kcat, phosphate donor varied (Cph001 [1]): 0.0152 ± 0.00067 s⁻¹ | Km (Cph001 [1]): 180 ± 30 µM

NC[C@H]1O[C@H](O[C@H]2[C@H](O)[C@@H](O[C@H]3O[C@H](CO)[C@@H](O)[C@H](N)[C@H]3O)[C@H](N)C[C@@H]2N)[C@H](O)[C@@H](O)[C@@H]1O [Kan, kanamycin]
phosphorylation by Cph001 in couple enzyme assay (Cph001 [1]): only capable of phosphorylating VIO

NCCC[C@H](N)CC(=O)N[C@H]1CNC(=O)[C@H]([C@H]2C[C@H](O)NC(N)=N2)NC(=O)/C(=C/NC(N)=O)NC(=O)[C@H](CO)NC(=O)[C@H](CO)NC1=O [VIO, viomycin] (β3hOrn-[Dap]SS[ΔAla(Z-3-ureido)][X1]; lactam 1-C)
zone of inhibition at 12.5 µg/disc [2]: 23.5 mm | zone of inhibition at 50 µg/disc [2]: 27 mm | zone of inhibition at 100 µg/disc [2]: 29 mm | zone of inhibition at 200 µg/disc [2]: 30 mm | phosphorylation by Cph001 in couple enzyme assay (Cph001 [1]): only capable of phosphorylating VIO | absorbance at 340 nm, Average of triplicate (Cph001 [1]; time 00:00:00): 1.495 | absorbance at 340 nm, Average of triplicate (Cph001 [1]; time 00:01:00): 1.515 | absorbance at 340 nm, Average of triplicate (Cph001 [1]; time 00:02:00): 1.474 | absorbance at 340 nm, Average of triplicate (Cph001 [1]; time 00:03:00): 1.3778 | absorbance at 340 nm, Average of triplicate (Cph001 [1]; time 00:04:00): 1.2968 | absorbance at 340 nm, Average of triplicate (Cph001 [1]; time 00:05:00): 1.217 | absorbance at 340 nm, Average of triplicate (Cph001 [1]; time 00:06:00): 1.012 | absorbance at 340 nm, Average of triplicate (Cph001 [1]; time 00:07:00): 0.8175 | absorbance at 340 nm, Average of triplicate (Cph001 [1]; time 00:08:00): 0.6031 | absorbance at 340 nm, Average of triplicate (Cph001 [1]; time 00:09:00): 0.4177 | absorbance at 340 nm, Average of triplicate (Cph001 [1]; time 00:10:00): 0.2691 | absorbance at 340 nm, Average of triplicate (Cph001 [1]; time 00:11:00): 0.254 | absorbance at 340 nm, Average of triplicate (Cph001 [1]; time 00:12:00): 0.2155 | absorbance at 340 nm, Average of triplicate (Cph001 [1]; time 00:13:00): 0.1675 | absorbance at 340 nm, Average of triplicate (Cph001 [1]; time 00:14:00): 0.1401 | absorbance at 340 nm, Average of triplicate (Cph001 [1]; time 00:15:00): 0.1225 | zone of inhibition at 12.5 µg/disc (E. coli/cph): 8.5 mm | zone of inhibition at 50 µg/disc (E. coli/cph): 10 mm | zone of inhibition at 100 µg/disc (E. coli/cph): 11 mm | zone of inhibition at 200 µg/disc (E. coli/cph): 12 mm | resistance in disk diffusion assay (E. coli/cph001): resistant | zone of inhibition at 12.5 µg/disc (E. coli/cph001): 8 mm | zone of inhibition at 50 µg/disc (E. coli/cph001): 12 mm | zone of inhibition at 100 µg/disc (E. coli/cph001): 15 mm | zone of inhibition at 200 µg/disc (E. coli/cph001): 17.5 mm | Kd (Cph001 [3]): 4.18 ± 0.68 µM

capreomycin
MIC ([4]; approximate molar equivalent): 1.5 to 4.5 µM | MIC [4]: 1 to 3 µg/mL
